We go through one sequence from article PMC10210398, “Genomic, functional and structural analyses elucidate evolutionary innovation within the sea anemone 8 toxin family” (BMC Biology, 2023).

The test system of one test is hKV1.1. Format: cell-based, human. The procedure: (§1) CHO and human embryonic kidney (HEK 293) cells were grown in DMEM-high glucose supplemented with 10% FBS, 2 mM L-glutamine, 100 U/mL penicillin-g, and 100 μg/mL streptomycin (Invitrogen) at 37 °C in a 5% CO2 and 95% air humidified atmosphere. Cells were passaged twice per week following a 5-min incubation in PBS containing 0.2 g/L EDTA (Invitrogen, Carlsbad, CA).
(§2) CHO cells (ATCC) were transiently transfected with plasmids encoding hKV1.1, hKV1.2, hKV10.1, hKCa3.1, hTRPA1, or hNaV1.7 using Lipofectamine 2000 (Invitrogen, Carlsbad, CA) following the manufacturer’s protocol, then cultured under standard conditions. The cells were co-transfected with a plasmid encoding green fluorescent protein (GFP) at a molar ratio of 10:1 except for hKV1.1, hKV1.2, and hKCa3.1 for which GFP-tagged ion channel vectors were used. Currents were recorded 24–36 h after transfection. […] HEK 293 cells stably expressing the hKv11.1 channel (hERG, hKCNH2 gene, a kind gift from H. Wulff, University of California, Davis, CA) and mKCa1.1 channel (BKCa, hKCNMA1, a kind gift from C. Beeton, Baylor College of Medicine, Houston, TX) were used. hTRPV1 channels were expressed in a stable manner in CHO cells. Transfected cells were washed twice with 2 mL of ECS (see below) and re-plated onto 35-mm polystyrene cell culture dishes (Cellstar, Greiner Bio-One). hKV1.3 currents were recorded from activated peripheral blood mononuclear cells (PBMCs, see below) 3–4 days after activation. Human veinous blood was obtained from anonymised healthy donors. […]
(§3) Conventional whole-cell patch-clamp electrophysiology was used to record ionic currents. […] Data were analysed using Prism 8 (GraphPad, CA, USA) and ClampFit 10.5 software (Molecular Devices Inc., Sunnyvale, CA). […] For hKCa3.1, hTRPA1 and hTRPV1, the reversal potential for K^+ was determined and only those currents were analysed for which the reversal potential fell into the range of the theoretical reversal potential ± 5 mV (− 86.5 ± 5 mV for KCa3.1, and 0 ± 5 mV for hTRPA1 and hTRPV1).

The target in another test is T1, hKV1.2 (Homo sapiens, UniProt P16389).
T1 construct: GFP; expressed in transfected cells; host or cells: CHO cells (ATCC), transient transfection with Lipofectamine 2000
As to the kind of experiment: Whole-cell patch-clamp, hKV1.2 in transiently transfected CHO cells. As to conditions: for RCF_mean (remaining current fraction, I/I0): mean. The format is cell-based. The procedure:
as §1
(§4) CHO cells (ATCC) were transiently transfected with plasmids encoding hKV1.1, hKV1.2, hKV10.1, hKCa3.1, hTRPA1, or hNaV1.7 using Lipofectamine 2000 (Invitrogen, Carlsbad, CA) following the manufacturer’s protocol, then cultured under standard conditions. The cells were co-transfected with a plasmid encoding green fluorescent protein (GFP) at a molar ratio of 10:1 except for hKV1.1, hKV1.2, and hKCa3.1 for which GFP-tagged ion channel vectors were used. Currents were recorded 24–36 h after transfection. […] HEK 293 cells stably expressing the hKv11.1 channel (hERG, hKCNH2 gene, a kind gift from H. Wulff, University of California, Davis, CA) and mKCa1.1 channel (BKCa, hKCNMA1, a kind gift from C. Beeton, Baylor College of Medicine, Houston, TX) were used. hTRPV1 channels were expressed in a stable manner in CHO cells. Transfected cells were washed twice with 2 mL of ECS (see below) and re-plated onto 35-mm polystyrene cell culture dishes (Cellstar, Greiner Bio-One). hKV1.3 currents were recorded from activated peripheral blood mononuclear cells (PBMCs, see below) 3–4 days after activation. Human veinous blood was obtained from anonymised healthy donors. PBMCs were isolated using Histopaque1077 (Sigma-Aldrich Hungary, Budapest, Hungary) density gradient centrifugation. Cells obtained were resuspended in RPMI 1640 medium containing 10% foetal calf serum (Sigma-Aldrich Hungary, Budapest, Hungary), 100 μg/mL penicillin, 100 μg/mL streptomycin, and 2 mM L-glutamine, seeded in a 24-well culture plate at a density of 5–6 × 10^5 cells/mL, and grown in a 5% CO2 incubator at 37 °C for 3–5 days. Phytohemagglutinin A (PHA, Sigma-Aldrich Hungary, Budapest, Hungary) was added to the medium at 10 μg/mL to amplify the KV1.3 expression. Cells were washed gently twice with 2 mL of ECS for the patch-clamp experiments.
Conventional whole-cell patch-clamp electrophysiology was used to record ionic currents. Micropipettes were pulled in four stages using a Flaming Brown automatic pipette puller (Sutter Instruments, San Rafael, CA) from Borosilicate Standard Wall with Filament aluminium–silicate glass (Harvard Apparatus Co., Holliston, MA) with tip diameters between 0.5 and 1 μm and heat polished to a tip resistance of 2–8 MΩ. All measurements were carried out by using Axopatch 200B amplifier connected to a personal computer using Axon Digidata 1550A data acquisition hardware (Molecular Devices, Sunnyvale, CA). In general, the holding potential was − 120 mV. Records were discarded when a leak at the holding potential was > 10% of the peak current at the test potential. Series resistance compensation up to 70% was used to minimise voltage errors and achieve proper voltage-clamp conditions. Experiments were performed at room temperature (20–24 °C). Data were analysed using Prism 8 (GraphPad, CA, USA) and ClampFit 10.5 software (Molecular Devices Inc., Sunnyvale, CA). Before analysis, whole-cell current traces were corrected for ohmic leakage and digitally filtered with a three-point boxcar smoothing filter. For hKCa3.1, hTRPA1 and hTRPV1, the reversal potential for K^+ was determined and only those currents were analysed for which the reversal potential fell into the range of the theoretical reversal potential ± 5 mV (− 86.5 ± 5 mV for KCa3.1, and 0 ± 5 mV for hTRPA1 and hTRPV1).

Another test concerns hKV1.3. Format: cell-based, human. The procedure:
as §4, with “Phytohemagglutinin A (PHA, Sigma-Aldrich Hungary, Budapest, Hungary) was added to the medium at 10 μg/mL to amplify the KV1.3 expression. Cells were washed gently twice with 2 mL of ECS for the patch-clamp experiments.” left out
as §3

The subject of another test is mKCa1.1 channel. Format: cell-based. The procedure: as §1, §2, §3
The test system of the next test is hKCa3.1. As to the kind of experiment: Whole-cell patch-clamp, hKCa3.1 in transiently transfected CHO cells. Format: cell-based, human. The procedure: as §1
CHO cells (ATCC) were transiently transfected with plasmids encoding hKV1.1, hKV1.2, hKV10.1, hKCa3.1, hTRPA1, or hNaV1.7 using Lipofectamine 2000 (Invitrogen, Carlsbad, CA) following the manufacturer’s protocol, then cultured under standard conditions. The cells were co-transfected with a plasmid encoding green fluorescent protein (GFP) at a molar ratio of 10:1 except for hKV1.1, hKV1.2, and hKCa3.1 for which GFP-tagged ion channel vectors were used. Currents were recorded 24–36 h after transfection. […] Transfected cells were washed twice with 2 mL of ECS (see below) and re-plated onto 35-mm polystyrene cell culture dishes (Cellstar, Greiner Bio-One). hKV1.3 currents were recorded from activated peripheral blood mononuclear cells (PBMCs, see below) 3–4 days after activation. […]
Conventional whole-cell patch-clamp electrophysiology was used to record ionic currents. […] Data were analysed using Prism 8 (GraphPad, CA, USA) and ClampFit 10.5 software (Molecular Devices Inc., Sunnyvale, CA). […]

Entries after “also recorded” stand apart in the source; their conditions may differ. Bridge positions count the residues as written; N and C are the ends. Ends that are not written are not given here.

T1 sequence (P16389 whole entry): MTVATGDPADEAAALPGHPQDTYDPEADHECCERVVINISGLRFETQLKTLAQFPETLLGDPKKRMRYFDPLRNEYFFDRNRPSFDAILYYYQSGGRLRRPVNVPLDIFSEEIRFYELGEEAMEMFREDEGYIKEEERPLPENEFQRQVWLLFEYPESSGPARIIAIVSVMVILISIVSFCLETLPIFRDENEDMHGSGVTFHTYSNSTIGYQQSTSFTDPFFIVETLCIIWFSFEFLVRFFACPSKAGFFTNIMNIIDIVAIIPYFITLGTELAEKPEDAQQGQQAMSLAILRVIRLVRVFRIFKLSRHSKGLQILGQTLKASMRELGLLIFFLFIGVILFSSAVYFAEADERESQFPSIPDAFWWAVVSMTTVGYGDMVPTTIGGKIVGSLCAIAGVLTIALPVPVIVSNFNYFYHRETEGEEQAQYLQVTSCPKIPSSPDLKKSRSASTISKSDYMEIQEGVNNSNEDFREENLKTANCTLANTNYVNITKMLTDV

As for “GYGKGRPGCYNHYDESICGGVIKDEHCKAGRGSRMGKFALKNCQFQCGLC (disulfide 9-47, 18-50, 27-43) [SA8]”, the “RCF_mean (remaining current fraction, I/I0)” value was 1.029 with hKV1.1 (Kv1.1, 100 nM SA8, mean, n = 4, SEM 0.0202631); 0.9869 at hKV1.2 (Kv1.2, 10 nM SA8, n = 5, SEM 0.00976051); 0.9412 on hKV1.2 (Kv1.2, 100 nM SA8, n = 4, SEM 0.0156624); 0.9151 at hKV1.2 (Kv1.2, 1000 nM SA8, n = 4, SEM 0.0249691); 0.772 at hKV1.2 (Kv1.2, 10000 nM SA8, n = 6, SEM 0.0222303); 1.03 in the test with hKV1.3 (Kv1.3, 100 nM SA8, mean, n = 3, SEM 0.00826878). Also, the “RCF_mean (remaining current fraction, I/I0)” value in the test with mKCa1.1 channel (KCa1.1, 100 nM SA8, mean, n = 4, SEM 0.0158455) worked out at 1.052; with hKCa3.1 (KCa3.1, 100 nM SA8, mean, n = 6, SEM 0.0170688), 0.9712. For the same sequence, the “effect on current, in words” value is reported as “no effect; also recorded: did not inhibit” in the test with hKV1.1 (hKV1.1, CHO cells, 100 nM SA8); “weak block; also recorded: modest block; also recorded: weak inhibition” on hKV1.2 (hKV1.2, CHO cells, 100 nM); “no effect; also recorded: did not inhibit” in the test with hKV1.3 (hKV1.3, activated PBMCs, 100 nM SA8); “no effect; also recorded: did not inhibit” in the test on mKCa1.1 channel (mKCa1.1, HEK 293, 100 nM SA8); “no effect; also recorded: did not inhibit” in the test on hKCa3.1 (hKCa3.1, CHO cells, 100 nM SA8). For the same sequence, the “association and dissociation rates” value at hKV1.2 (100 nM SA8, hKV1.2) is recorded as “rapid”. The “reversibility of block upon washing” value on hKV1.2 (100 nM SA8, hKV1.2, inhibitor-free solution) is on record as “almost fully reversible”. Besides, the “time for development of equilibrium block and recovery” value at hKV1.2 (100 nM SA8, hKV1.2, recovery up to ~ 85% of control current) was ~ 1 min. Further, the half-inhibitory concentration (IC50) at hKV1.2 (0.01, 0.1, 1 and 10 µM SA8, linear least squares fit Y = 1 + slope × [toxin], n = 4, room temperature (20–24 °C), ECS pH 7.35, 0.1 mg/mL BSA, CHO cells) stood at 40.8 ± 4.9 µM. Also, the “recovery of current upon washing (of control current)” value at hKV1.2 (after 100 nM SA8, hKV1.2, inhibitor-free solution) is on record as ~ 85%.
